The source of these data is patent US4248880A, “Treatment of gastric ulcers with naphthimidazole derivatives” (Hoffmann-La Roche Inc., priority 1977, dated 1981).

One data set can be described thus: LD50 in the mouse. Particulars: in vivo, po, per os.
Data set [1] relates to stress-induced gastric ulcers. The experiment in a line: inhibition of the formation of stress-induced gastric ulcers in rats (water bath). It counts as in vivo. Particulars: Rattus norvegicus, po, 6 h; female rats 140 to 160 g; per os; water bath 22.5° C. for six hours; 10 rats per dosage; Probit method; read-out: ED50 (effective dosage at which 50% of the rats are protected against stress-induced ulcers). The protocol:
After six hours in the water, the animals were sacrificed and the incidence of ulcers noted. The ED50, that is, the dosage at which 50% of the 10 rats utilized per dosage are protected against stress-induced ulcers by the test compound was then determined according to the Probit method.

For another data set, the system named is gastric acid secretion. The experiment in a line: inhibition of 4-methylhistamine-stimulated gastric acid secretion in the conscious Heidenhain pouch dog. It counts as in vivo. As to conditions: Canis lupus familiaris, oral, 4-methylhistamine dihydrochloride infusion i.v., read-out: effective therapeutic dosage (per os amount causing 60-80% inhibition of acid secretion produced by 4-methylhistamine). The text has this:
A part of the stomach fundus of dogs is separated from the remaining stomach in the form of a pouch according to the Heidenhain technique described by Rudick et al in J. Surgical Research, vol. 7, pp 383-398 (1967). The pouch is fitted with a steel canula conducted externally through the abdominal wall and the operation is allowed to heal. Utilizing a conscious dog prepared as above, gastric secretion is stimulated by an infusion of 4-methylhistaminedihydrochloride (40 μ/kg per hr., i.v.) which selectively stimulates histamine H2 receptors. When volumes of fifteen minute samples of gastric secretion and pH levels appear constant, the test substance is administered orally and samples again taken. […] In the context of this procedure, an effective therapeutic dosage may be defined as the amount of test substance administered per os which causes an inhibition of from 60-80% of the acid secretion produced by the administration of 4-methylhistamine.

SMILES strings stand for the structures.

The term LD50 denotes the dose at which mortality reaches 50%. Low values mean a more toxic substance, high ones a less toxic substance. As usually defined, the ED50 is the dose at which the effect has come halfway, by size or by number of responders. For `Cc1ccc(CSc2nc3cc4ccccc4cc3[nH]2)nc1` [2-/[(5-methyl-2-pyridyl)-methyl]thio/-1H-naphth[2,3-d]imidazole], the 50% lethal dose (LD50) in “LD50 in the mouse” came to 8000 mg/kg. Besides, the ED50 in data set [1] amounted to 31 mg/kg. In addition, the ED (60-80) in the data set on gastric acid secretion was about 3 mg/kg.
In the data set “LD50 in the mouse”, `c1ccc(CSc2nc3cc4ccccc4cc3[nH]2)nc1` [2-[(2-pyridylmethyl)thio]-1H-naphth[2,3-d]imidazole] gave an LD50 of over 5000 mg/kg. For the same compound, the ED50 in data set [1] amounted to 12 mg/kg. In the data set on gastric acid secretion, the ED (60-80) is about 3 mg/kg.
